Test results published in patent US20240327393A1 (SIRONAX LTD., priority 2021, published 2024).

Test system: HT-1080 (ATCC, CCL-121) cells
Assay: HT-1080 cell viability assay with ferroptosis inducer RSL3 (Cell Titer-Glo)
Assay type: cell-based
Settings: Homo sapiens; HT-1080 cells treated with RSL3; 3-fold, 10-point dilution, 1.1 μM highest concentration; Table 2; read-out: EC50 (nM), ferroptosis inhibitory activity
In short: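 EC50 was derived by sigmoidal dose-response regression of CellTiter-Glo luminescence viability, expressed relative to untreated wells. Compounds were tested in a ten-point, threefold dilution series (highest 1.1 μM) in the presence of the ferroptosis inducer RSL3. HT-1080 cells had been seeded at 6000 per well and grown overnight first.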

| EC50 | SMILES |
| --- | --- |
| 100 to 1000 nM | Cn1c(=O)n(C)c2cc(Nc3ccsc3)ccc21 [Compound 342, 1,3-dimethyl-5-(thiophen-3-ylamino)-1,3-dihydro-2H-benzo[d]imidazol-2-one] |
| 0.1 to 100 nM | Cn1c(=O)n(C)c2ncc(Nc3ccc(N4CCC(C(F)(F)F)CC4)cc3)cc21 [Compound 343, 1,3-dimethyl-6-((4-(4-(trifluoromethyl)piperidin-1-yl)phenyl)amino)-1,3-dihydro-2H-imidazo[4,5-b]pyridin-2-one] |
| 0.1 to 100 nM | Cn1c(=O)oc2cc(Nc3ccc4c(c3)n(C)c(=O)n4C)ccc21 [Compound 344, 6-((1,3-dimethyl-2-oxo-2,3-dihydro-1H-benzo[d]imidazol-5-yl)amino)-3-methylbenzo[d]oxazol-2(3H)-one] |
| 0.1 to 100 nM | CC1CCN(c2ccc(Nc3ccc4c(c3)n(C)c(=N)n4C)cc2)CC1 [Compound 345, 2-imino-1,3-dimethyl-N-(4-(4-methylpiperidin-1-yl)phenyl)-2,3-dihydro-1H-benzo[d]imidazol-5-amine] |
| 100 to 1000 nM | CN1CCOc2cc(Nc3ccc(N4CCC(C(F)(F)F)CC4)cc3)ccc2C1=O [Compound 346, 4-methyl-8-((4-(4-(trifluoromethyl)piperidin-1-yl)phenyl)amino)-3,4-dihydrobenzo[f][1,4]oxazepin-5(2H)-one] |
| 0.1 to 100 nM | Cn1ccc2cc(Nc3ccc(N4CCC(C(F)(F)F)CC4)cc3)ccc21 [Compound 347, 1-methyl-N-(4-(4-(trifluoromethyl)piperidin-1-yl)phenyl)-1H-indol-5-amine] |
| 0.1 to 100 nM | Cn1ccc2ccc(Nc3ccc(N4CCC(C(F)(F)F)CC4)cc3)cc21 [Compound 348, 1-methyl-N-(4-(4-(trifluoromethyl)piperidin-1-yl)phenyl)-1H-indol-6-amine] |
| 0.1 to 100 nM | Cn1c(=O)oc2ccc(Nc3ccc(N4CCC(C(F)(F)F)CC4)cc3)cc21 [Compound 349, 3-methyl-5-((4-(4-(trifluoromethyl)piperidin-1-yl)phenyl)amino)benzo[d]oxazol-2(3)-one] |
| 0.1 to 100 nM | Cn1cnc2ccc(Nc3ccc(N4CCC(C(F)(F)F)CC4)cc3)cc21 [Compound 350, 1-methyl-N-(4-(4-(trifluoromethyl)piperidin-1-yl)phenyl)-1H-benzo[d]imidazol-6-amine] |
| 0.1 to 100 nM | FC(F)(F)C1CCN(c2ccc(Nc3ccc4ccoc4c3)cc2)CC1 [Compound 351, N-(4-(4-(trifluoromethyl)piperidin-1-yl)phenyl)benzofuran-6-amine] |
| 0.1 to 100 nM | CC1CCN(c2ccc(Nc3ccc4c(c3)c(N)nn4C)cc2)CC1 [Compound 352, 1-methyl-N5-(4-(4-methylpiperidin-1-yl)phenyl)-1H-indazole-3,5-diamine] |
| 0.1 to 100 nM | CC1CCN(c2ccc(Nc3ccc4c(c3)c(C(=O)O)cn4C)cc2)CC1 [Compound 353, 1-methyl-5-((4-(4-methylpiperidin-1-yl)phenyl)amino)-1H-indole-3-carboxylic acid] |
| 0.1 to 100 nM | COCCn1c(=O)n(C)c2cc(Nc3ccc(N4CCC(C(F)(F)F)CC4)cc3)ccc21 [Compound 354, 1-(2-methoxyethyl)-3-methyl-5-((4-(4-(trifluoromethyl)piperidin-1-yl)phenyl)amino)-1,3-dihydro-2H-benzo[d]imidazol-2-one] |
| 0.1 to 100 nM | CN(C)CCn1c(=O)n(C)c2cc(Nc3ccc(N4CCC(C(F)(F)F)CC4)cc3)ccc21 [Compound 355, 1-(2-(dimethylamino)ethyl)-3-methyl-5-((4-(4-(trifluoromethyl)piperidin-1-yl)phenyl)amino)-1,3-dihydro-2H-benzo[d]imidazol-2-one] |
| 0.1 to 100 nM | CC(=O)Nc1nn(C)c2ccc(Nc3ccc(N4CCC(C)CC4)cc3)cc12 [Compound 356, N-(1-methyl-5-((4-(4-methylpiperidin-1-yl)phenyl)amino)-1H-indazol-3-yl) acetamide] |
| 0.1 to 100 nM | FC(F)(F)C1CCN(c2ccc(Nc3ccc4nc[nH]c4c3)cc2)CC1 [Compound 357, N-(4-(4-(trifluoromethyl)piperidin-1-yl)phenyl)-1H-benzo[d]imidazol-6-amine] |
| 0.1 to 100 nM | FC(F)(F)C1CCN(c2ccc(Nc3ccc4cnoc4c3)cc2)CC1 [Compound 358, N-(4-(4-(trifluoromethyl)piperidin-1-yl)phenyl)benzo[d]isoxazol-6-amine] |
| 0.1 to 100 nM | FC(F)(F)C1CCN(c2ccc(Nc3ccc4ocnc4c3)cc2)CC1 [Compound 359, N-(4-(4-(trifluoromethyl)piperidin-1-yl)phenyl)benzo[d]oxazol-5-amine] |
| 0.1 to 100 nM | FC(F)(F)C1CCN(c2ccc(Nc3ccc4ncoc4c3)cc2)CC1 [Compound 360, N-(4-(4-(trifluoromethyl)piperidin-1-yl)phenyl)benzo[d]oxazol-6-amine] |

| EC50 | SMILES |
| --- | --- |
| 100 to 1000 nM | CCN(CCC(=O)OC)c1ccc(Nc2ccc3c(c2)n(C)c(=O)n3C)cc1 [Compound 361, methyl 3-((4-((1,3-dimethyl-2-oxo-2,3-dihydro-1H-benzo[d]imidazol-5-yl)amino)phenyl)(ethyl)amino)propanoate] |
| 0.1 to 100 nM | Cn1c(=O)n(C)c2cc(Nc3ccc(N4CCC(C(F)(F)F)CC4)nc3)ccc21 [Compound 362, 1,3-dimethyl-5-((6-(4-(trifluoromethyl)piperidin-1-yl)pyridin-3-yl)amino)-1,3-dihydro-2H-benzo[d]imidazol-2-one] |
| 0.1 to 100 nM | Cn1c(=O)[nH]c2cc(Nc3ccc(N4CCC(C(F)(F)F)CC4)cc3)ccc21 [Compound 363, 1-methyl-5-((4-(4-(trifluoromethyl)piperidin-1-yl)phenyl)amino)-1,3-dihydro-2H-benzo[d]imidazol-2-one] |
| 0.1 to 100 nM | Cn1ncc2cc(Nc3ccc(N4CCC(C(F)(F)F)CC4)cc3)ccc21 [Compound 364, 1-methyl-N-(4-(4-(trifluoromethyl)piperidin-1-yl)phenyl)-1H-indazol] |
| 0.1 to 100 nM | CCNC(=O)c1cn(C)c2ccc(Nc3ccc(N4CCC(C)CC4)cc3)cc12 [Compound 365, N-ethyl-1-methyl-5-((4-(4-methylpiperidin-1-yl)phenyl)amino)-1H-indole-3-carboxamide] |
| 0.1 to 100 nM | FC(F)(F)C1CCN(c2ccc(Nc3ccc4cn[nH]c4c3)cc2)CC1 [Compound 366, N-(4-(4-(trifluoromethyl)piperidin-1-yl)phenyl)-1H-indazol-6-amine] |
| 0.1 to 100 nM | Cn1c(=O)n(CCN2CCCC2=O)c2ccc(Nc3ccc(N4CCC(C(F)(F)F)CC4)cc3)cc21 [Compound 367, 3-methyl-1-(2-(2-oxopyrrolidin-1-yl)ethyl)-5-((4-(4-(trifluoromethyl)piperidin-1-yl)phenyl)amino)-1,3-dihydro-2H-benzo[d]imidazol-2-one] |
| 0.1 to 100 nM | CC1CCCCN1c1ccc(Nc2ccc3c(c2)n(C)c(=O)n3C)cc1 (stereo not shown) [Compound 368, 1,3-dimethyl-5-((4-(2-methylpiperidin-1-yl)phenyl)amino)-1,3-dihydro-2H-benzo[d]imidazol-2-one] |
| 100 to 1000 nM | COCCOCCN(C)c1ccc(Nc2ccc3c(c2)n(C)c(=O)n3C)cc1 [Compound 369, 5-((4-((2-(2-methoxyethoxy)ethyl)(methyl)amino)phenyl)amino)-1,3-dimethyl-1,3-dihydro-2H-benzo[d]imidazol-2-one] |
| 0.1 to 100 nM | Cn1c(N)nc2cc(Nc3ccc(N4CCC(C(F)(F)F)CC4)cc3)ccc21 [Compound 370, 1-methyl-N^5-(4-(4-(trifluoromethyl)piperidin-1-yl)phenyl)-1H-benzo[d]imidazole-2,5-diamine] |
| 0.1 to 100 nM | Cc1cc(Nc2ccc3c(c2)n(C)c(=O)n3C)cnc1N1CCC(C(F)(F)F)CC1 [Compound 371, 1,3-dimethyl-5-((5-methyl-6-(4-(trifluoromethyl)piperidin-1-yl)pyridin-3-yl)amino)-1,3-dihydro-2H-benzo[d]imidazol-2-one] |
| 0.1 to 100 nM | COc1cc(Nc2ccc3c(c2)n(C)c(=O)n3C)cnc1N1CCC(C(F)(F)F)CC1 [Compound 372, 5-((5-methoxy-6-(4-(trifluoromethyl)piperidin-1-yl)pyridin-3-yl)amino)-1,3-dimethyl-1,3-dihydro-2H-benzo[d]imidazol-2-one] |
| 0.1 to 100 nM | Cc1nc(N2CCC(C(F)(F)F)CC2)ccc1Nc1ccc2c(c1)n(C)c(=O)n2C [Compound 373, 1,3-dimethyl-5-((2-methyl-6-(4-(trifluoromethyl)piperidin-1-yl)pyridin-3-yl)amino)-1,3-dihydro-2H-benzo[d]imidazol-2-one] |
| 0.1 to 100 nM | Cn1c(=O)n(C)c2cc(Nc3ccc(N4CCC(C(F)(F)F)CC4)cc3C#N)ccc21 [Compound 374, 2-((1,3-dimethyl-2-oxo-2,3-dihydro-1H-benzo[d]imidazol-5-yl)amino)-5-(4-(trifluoromethyl)piperidin-1-yl)benzonitrile] |
| 0.1 to 100 nM | COc1cc(N2CCC(C(F)(F)F)CC2)ccc1Nc1ccc2c(c1)n(C)c(=O)n2C [Compound 375, 5-((2-methoxy-4-(4-(trifluoromethyl)piperidin-1-yl)phenyl)amino)-1,3-dimethyl-1,3-dihydro-2H-benzo[d]imidazol-2-one] |
| 0.1 to 100 nM | CC1CCN(c2ncc(Nc3ccc4c(c3)n(C)c(=O)n4C)cn2)CC1 [Compound 376, 1,3-dimethyl-5-((2-(4-methylpiperidin-1-yl)pyrimidin-5-yl)amino)-1,3-dihydro-2H-benzo[d]imidazol-2-one] |
| 0.1 to 100 nM | COc1nc(N2CCC(C(F)(F)F)CC2)ccc1Nc1ccc2c(c1)n(C)c(=O)n2C [Compound 377, 5-((2-methoxy-6-(4-(trifluoromethyl)piperidin-1-yl)pyridin-3-yl)amino)-1,3-dimethyl-1,3-dihydro-2H-benzo[d]imidazol-2-one] |
| 0.1 to 100 nM | Cn1c(=O)n(C)c2cc(Nc3cnc(N4CCC(C(F)(F)F)CC4)c(F)c3)ccc21 [Compound 378, 5-((5-fluoro-6-(4-(trifluoromethyl)piperidin-1-yl)pyridin-3-yl)amino)-1,3-dimethyl-1,3-dihydro-2H-benzo[d]imidazol-2-one] |
